In general, IC50 refers to the midpoint of a concentration-inhibition curve.

This is an account of results in patent US8829007B2 (priority 2009, dated 2014).

The test system of one assay is influenza A virus (A/PR/8/34). Nature of the assay: microbe, parasite or virus in culture. Type of assay: cell-based. The following applies: Influenza A virus, PR/8, MDCK, MDCK cells infected with A/PR/8/34, cell protection (CPE); read-out: IC50 (mean all).
With `Cc1csc(NC(=O)N2CCC[C@H](CNc3nc(-c4c[nH]c5ncc(Cl)cc45)ncc3F)C2)c1` [Compound 130, (R)-3-((2-(5-chloro-1H-pyrrolo[2,3-b]pyridin-3-yl)-5-fluoropyrimidin-4-ylamino)methyl)-N-(4-methylthiophen-2-yl)piperidine-1-carboxamide], the IC50 is less than 5 µM.

Regarding `CN(C)C(=O)N1CCC[C@@H](CNc2nc(-c3c[nH]c4ncccc34)ncc2F)C1` [Compound 228, (S)-3-((5-fluoro-2-(1H-pyrrolo[2,3-b]pyridin-3-yl)pyrimidin-4-ylamino)methyl)-N,N-dimethylpiperidine-1-carboxamide], the IC50 was 5 to 20 µM.

With `N[C@@H]1CCCC[C@H]1Nc1nc(-c2c[nH]c3ncc(Cl)cc23)ncc1Cl` [Compound 115, (1R,2R)—N1-(5-chloro-2-(5-chloro-1H-pyrrolo[2,3-b]pyridin-3-yl)pyrimidin-4-yl)cyclohexane-1,2-diamine], the IC50 was more than 20 µM.

For the compound `O=C(O)c1nccnc1C(=O)N1CCC[C@H](CNc2nc(-c3c[nH]c4ncc(Cl)cc34)ncc2F)C1` [Compound 82, (R)-3-(3-((2-(5-chloro-1H-pyrrolo[2,3-b]pyridin-3-yl)-5-fluoropyrimidin-4-ylamino)methyl)piperidine-1-carbonyl)pyrazine-2-carboxylic acid], the IC50 is more than 20 µM.

For the compound `O=C(c1ccccc1F)N1CCC[C@H](CNc2nc(-c3c[nH]c4ncc(Cl)cc34)ncc2F)C1` [Compound 58, (R)-(3-((2-(5-chloro-1H-pyrrolo[2,3-b]pyridin-3-yl)-5-fluoropyrimidin-4-ylamino)methyl)piperidin-1-yl)(2-fluorophenyl)methanone], the IC50 was less than 5 µM.

Consider `C[C@H](CO)CN1CCCC(CNc2nc(-c3c[nH]c4ncc(Cl)cc34)ncc2F)C1` (stereo partly drawn) [Compound 135], for which the concentration for half-maximal inhibition (IC50) is more than 20 µM.

In the case of `O=C(c1nccs1)N1CCCC[C@H]1CNc1nc(-c2c[nH]c3ncc(Cl)cc23)ncc1F` [Compound 165, (S)-(2-((2-(5-chloro-1H-pyrrolo[2,3-b]pyridin-3-yl)-5-fluoropyrimidin-4-ylamino)methyl)piperidin-1-yl)(thiazol-2-yl)methanone], the IC50 is more than 20 µM.

Consider `O=C(O)COCC(=O)N1CCC[C@H](CNc2nc(-c3c[nH]c4ncc(Cl)cc34)ncc2F)C1` [Compound 54, (R)-2-(2-(3-((2-(5-chloro-1H-pyrrolo[2,3-b]pyridin-3-yl)-5-fluoropyrimidin-4-ylamino)methyl)piperidin-1-yl)-2-oxoethoxy)ethanoic acid], for which the IC50 was 5 to 20 µM.

Staying with this assay, now noted: Influenza A virus, PR/8, MDCK, MDCK cells infected with A/PR/8/34; survival of infected cells; class symbols; read-out: IC50 (mean all).
Consider `CC(C)CC(=O)N1CCC[C@H](CNc2ccnc(-c3c[nH]c4ncc(Cl)cc34)n2)C1` [Compound 494, (R)-1-(3-((2-(5-chloro-1H-pyrrolo[2,3-b]pyridin-3-yl)pyrimidin-4-ylamino)methyl)piperidin-1-yl)-3-methylbutan-1-one], for which the IC50 is 5 to 20 µM.

As for `CN(C)[C@H]1CCCC[C@@H]1Nc1nc(-c2c[nH]c3ncc(Cl)cc23)ncc1F` [Compound 523, (1S,2S)—N1-(2-(5-chloro-1H-pyrrolo[2,3-b]pyridin-3-yl)-5-fluoropyrimidin-4-yl)-N2,N2-dimethylcyclohexane-1,2-diamine], the IC50 is more than 20 µM.

Staying with this assay, now noted: Influenza A virus, PR/8, MDCK, mean all; A/PR/8/34 infected MDCK cells, CPE assay; read-out: IC50.
Turning to `CCC(=O)N[C@@H]1CCCC[C@H]1Nc1nc(-c2c[nH]c3ncccc23)ncc1F` [Compound 356, N-[(1R,2R)-2-[[5-fluoro-2-(1H-pyrrolo[2,3-b]pyridin-3-yl)pyrimidin-4-yl]amino]cyclohexyl]propanamide], the IC50 is more than 20 µM.

`O=S(=O)(C1CC1)N1CC[C@H](Nc2nc(-c3c[nH]c4ncc(Cl)cc34)ncc2F)C1` [Compound 401, (S)-2-(5-chloro-1H-pyrrolo[2,3-b]pyridin-3-yl)-N-(1-(cyclopropylsulfonyl)pyrrolidin-3-yl)-5-fluoropyrimidin-4-amine]: the IC50 was 5 to 20 µM.

On to `O=C(N[C@@H]1CCCC[C@H]1Nc1nc(-c2c[nH]c3ncc(Cl)cc23)ncc1F)C1CCCC1` [Compound 351, N-[(1R,2R)-2-[[2-(5-chloro-1H-pyrrolo[2,3-b]pyridin-3-yl)-5-fluoro-pyrimidin-4-yl]amino]cyclohexyl]cyclopentanecarboxamide], for which the IC50 is more than 20 µM.

`CCCC(=O)N[C@@H]1CCCC[C@@H]1Nc1nc(-c2c[nH]c3ncccc23)ncc1F` (relative stereo) [Compound 342, N-[cis-2-[[5-fluoro-2-(1H-pyrrolo[2,3-b]pyridin-3-yl)pyrimidin-4-yl]amino]cyclohexyl]butanamide]: the IC50 was more than 20 µM.

Take `CCCNC(=O)N[C@@H]1CCCC[C@H]1Nc1nc(-c2c[nH]c3ncc(Cl)cc23)ncc1F` (relative stereo) [Compound 368, 1-[trans-2-[[2-(5-chloro-1H-pyrrolo[2,3-b]pyridin-3-yl)-5-fluoro-pyrimidin-4-yl]amino]cyclohexyl]-3-propyl-urea]: the IC50 was more than 20 µM.

As to `O=C(O[C@H]1CCOC1)N1CC[C@@H](Nc2nc(-c3c[nH]c4ncc(Cl)cc34)ncc2F)C1` [Compound 424], the IC50 was more than 20 µM.

With `COCC(=O)N1CC[C@H](Nc2nc(-c3c[nH]c4ncc(Cl)cc34)ncc2F)C1` [Compound 481], the IC50 fell in the range of 5 to 20 µM.

`CCCC(=O)N[C@@H]1CCCC[C@H]1Nc1nc(-c2c[nH]c3ncc(Cl)cc23)ncc1F` (relative stereo) [Compound 363, N-[trans-2-[[2-(5-chloro-1H-pyrrolo[2,3-b]pyridin-3-yl)-5-fluoro-pyrimidin-4-yl]amino]cyclohexyl]butanamide]: the IC50 was more than 20 µM.

`CC(C)OC(=O)N1CCC[C@H](Nc2nc(-c3c[nH]c4ncc(Cl)cc34)ncc2F)C1` [Compound 442]: the IC50 was 5 to 20 µM.

Regarding `CN(C)C(=O)N[C@@H]1CCCC[C@@H]1Nc1nc(-c2c[nH]c3ncc(Cl)cc23)ncc1F` (relative stereo) [Compound 431, 3-[cis-2-[[2-(5-chloro-1H-pyrrolo[2,3-b]pyridin-3-yl)-5-fluoro-pyrimidin-4-yl]amino]cyclohexyl]-1,1-dimethyl-urea], the IC50 is less than 5 µM.

As for `O=C(N[C@@H]1CCCC[C@@H]1Nc1nc(-c2c[nH]c3ncc(Cl)cc23)ncc1F)c1ccccc1` (relative stereo) [Compound 336, N-[cis-2-[[2-(5-chloro-1H-pyrrolo[2,3-b]pyridin-3-yl)-5-fluoro-pyrimidin-4-yl]amino]cyclohexyl]benzamide], the IC50 was more than 20 µM.

Take `CCCNC(=O)N[C@@H]1CCCC[C@@H]1Nc1nc(-c2c[nH]c3ncc(Cl)cc23)ncc1F` (relative stereo) [Compound 339, 1-[cis-2-[[2-(5-chloro-1H-pyrrolo[2,3-b]pyridin-3-yl)-5-fluoro-pyrimidin-4-yl]amino]cyclohexyl]-3-propyl-urea]: the IC50 fell in the range of 5 to 20 µM.

For the compound `O=S(=O)(CC1CCCC1)N1CC(Nc2nc(-c3c[nH]c4ncc(Cl)cc34)ncc2F)C1` [Compound 469, 2-(5-chloro-1H-pyrrolo[2,3-b]pyridin-3-yl)-N-(1-(cyclopentyl-methylsulfonyl)azetidin-3-yl)-5-fluoropyrimidin-4-amine], the IC50 is more than 20 µM.

Take `O=C(NC1CCCCC1Nc1nc(-c2c[nH]c3ncc(Cl)cc23)ncc1F)C1CCCC1` (stereo not drawn) [Compound 364, N-[(trans-2-[[2-(5-chloro-1H-pyrrolo[2,3-b]pyridin-3-yl)-5-fluoro-pyrimidin-4-yl]amino]cyclohexyl]cyclopentanecarboxamide]: the IC50 was more than 20 µM.

Regarding `CCCNC(=O)N[C@@H]1CCCC[C@H]1Nc1nc(-c2c[nH]c3ncccc23)ncc1F` [Compound 370, 1-[(1R,2R)-2-[[5-fluoro-2-(1H-pyrrolo[2,3-b]pyridin-3-yl)pyrimidin-4-yl]amino]cyclohexyl]-3-propyl-urea], the IC50 is more than 20 µM.

`CC(C)S(=O)(=O)N1CC[C@H](Nc2nc(-c3c[nH]c4ncc(Cl)cc34)ncc2F)C1` [Compound 400, (5)-2-(5-chloro-1H-pyrrolo[2,3-b]pyridin-3-yl)-5-fluoro-N-(1-(isopropylsulfonyl)pyrrolidin-3-yl)pyrimidin-4-amine]: the IC50 fell in the range of 5 to 20 µM.

On to `O=C(N[C@@H]1CCCC[C@H]1Nc1nc(-c2c[nH]c3ncccc23)ncc1F)c1ccccc1` [Compound 360, N-[(1R,2R)-2-[[5-fluoro-2-(1H-pyrrolo[2,3-b]pyridin-3-yl)pyrimidin-4-yl]amino]cyclohexyl]benzamide], for which the IC50 was more than 20 µM.

For `O=C(N[C@@H]1CCCC[C@H]1Nc1nc(-c2c[nH]c3ncccc23)ncc1F)C1CCCC1` [Compound 359, N-[(1R,2R)-2-[[5-fluoro-2-(1H-pyrrolo[2,3-b]pyridin-3-yl)pyrimidin-4-yl]amino]cyclohexyl]cyclopentanecarboxamide], the IC50 was more than 20 µM.

As for `O=S(=O)(C1CC1)N1CCCC[C@H]1CNc1nc(-c2c[nH]c3ncc(Cl)cc23)ncc1F` [Compound 386, (S)-2-(5-chloro-1H-pyrrolo[2,3-b]pyridin-3-yl)-5-fluoro-N-((1-(cyclopropylsulfonyl)-piperidin-2-yl)methyl)pyrimidin-4-amine], the half-maximal inhibitory concentration (IC50) was less than 5 µM.

Staying with this assay, now noted: MDCK cells infected with A/PR/8/34; survival of infected cells; class symbols; read-out: IC50 (mean all).
In the case of `NC1CCCC(Nc2ccnc(-c3c[nH]c4ncc(Cl)cc34)n2)C1` (stereo not drawn) [Compound 510], the IC50 is more than 20 µM.

The same assay, now with this note: mean all; A/PR/8/34 infected MDCK cells, CPE assay; read-out: IC50.
Turning to `CS(=O)(=O)N1CCCC(Nc2ccnc(-c3c[nH]c4ncc(Cl)cc34)n2)C1` (stereo not drawn) [Compound 466], the IC50 is 5 to 20 µM.

Still in this assay, the particulars now being: read-out: IC50 (mean all).
For “(S)-6-(2-(5-chloro-1H-pyrrolo[2,3-b]pyridin-3-yl)-5-fluoropyrimidin-4-ylamino)-4-(4-methoxybenzyl)-1,4-oxazepan-2-one [Compound 505]”, the IC50 was 5 to 20 µM.

For the compound “(R)-ethyl 3-((2-(5-chloro-1H-pyrrolo[2,3-b]pyridin-3-yl)pyrimidin-4-ylamino)methyl)piperidine-1-carboxylate [Compound 495]”, the IC50 was in the range of 5 to 20 µM.
